Experimental findings from PMC11440583 (2024) are described below.

The test system of test [1] is VEGF (DNA, G4) GGGAGGGTTGGGGTGGG
Briefly: CD (or UV) thermal melting. To be noted: 5 mM KCl; 10 mM Tris pH 7.2; 8 μM compound, 2 μM DNA.

Test [2] relates to c-MYC Pu22 (DNA, G4) TGAGGGTGGGTAGGGTGGGTAA
Briefly: 1H NMR titration. To be noted: K+; 0-1.5 equiv compound.

Test [3] has as its system Cy5-HIF-1α (DNA, G4) GCGCGGGGAGGGGAGAGGGGGCGGGAGCGCG
Description: microscale thermophoresis (ligand-induced fluorescence quenching). To be noted: 100 mM KCl; 50 mM Tris pH 7.2, 0.05% Tween 20; 50 nM G4. (Microscale thermophoresis detects binding through changes in fluorescence in a small temperature gradient.)

In test [4] the test system is TBA (DNA, G4) GGTTGGTGTGGTTGG
Briefly: CD (or UV) thermal melting. To be noted: 5 mM KCl; 10 mM Tris pH 7.2; 8 μM compound, 2 μM DNA.

For test [5], the system named is Bom17 (DNA, G4) GGTTAGGTTAGGTTAGG
Briefly: CD (or UV) thermal melting. To be noted: 15 mM KCl; 10 mM Tris pH 7.2; 8 μM compound, 2 μM DNA.

Test [6] has as its system F-Tel22-Na+-T (DNA, G4) AGGGTTAGGGTTAGGGTTAGGG
Briefly: FRET melting with dsDNA competitor. To be noted: 40 mM NaCl; 10 mM sodium cacodylate pH 7.2; 2 μM compound, 0.2 μM G4; 0-20 μM dsDNA.

In test [7] the test system is Tel22 (Tel22-Na+ antiparallel; Tel22-K+ hybrid) (DNA, G4) AGGGTTAGGGTTAGGGTTAGGG
Briefly: CD (or UV) thermal melting. To be noted: 10 mM Tris pH 7.2, 8 μM compound, 2 μM DNA.

The subject of test [8] is c-MYC Pu24T (c-MYC Pu24-T; c-MYC Pu24) (DNA, G4) TGAGGGTGGTGAGGGTGGGGAAGG
Briefly: CD (or UV) thermal melting. To be noted: 5 mM KCl; 10 mM Tris pH 7.2; 8 μM compound, 2 μM DNA.

Test [9] has as its system c-MYC Pu22 (DNA, G4) TGAGGGTGGGTAGGGTGGGTAA
Briefly: CD (or UV) thermal melting. To be noted: 5 mM KCl; 10 mM Tris pH 7.2; 8 μM compound, 2 μM DNA.

Test [10] deals with dsDNA (DNA, duplex) CAATCGGATCGAATTCGATCCGATTG
Description: CD (or UV) thermal melting. To be noted: 5 mM KCl; 10 mM Tris pH 7.2; 8 μM compound, 2 μM DNA.

Test [11] relates to Tel22 (Tel22-Na+ antiparallel; Tel22-K+ hybrid) (DNA, G4) AGGGTTAGGGTTAGGGTTAGGG
Briefly: 1H NMR titration. To be noted: up to 2.0 equiv compound.

The term ΔTm denotes the shift of the melting midpoint relative to a reference. Consider `NCCNCCNC(=O)c1cc(F)c(/N=N/c2c(F)cc(-c3ccncc3)cc2F)c(F)c1`, for which the ΔTm in test [1] was 14.7 °C; in test [4], 6.3 °C; in test [5], 8.8 °C; in [7] (5 mM KCl), 9.9 °C; in [7] (15 mM NaCl), 5.8 °C; in test [8], 4.2 °C. Moreover, the ΔTm amounted to 19.2 °C in [9] and 1.0 °C in [10]. The binding result in [2], in [6] and in test [11] was “yes” each time. In addition, the association constant in [3] is recorded as 2.8 × 10^5 M^–1.
